Reference: US6521814B1, “Use of ligands for treatment of diseases responsive to retinoids” (Institut National de la Santa et de la Recherche Medicale, priority 1997, dated 2003)

Key:
[1] = system: RXRα−/−/RARα−/− F9 cells; assay: Differentiation of F9 cells into primitive and parietal endoderm-like cells in monolayer (morphology, RT-PCR of collagen type IVα1 and laminin B1); type: cell-based, murine
Text: (§1) The differentiation patterns of RXRα^−/−/RARα^−/−and RXRα^−/−/RARγ^−/− cells were compared with those of WT and single knockout cell lines.
(§2) Transcript levels were quantified using a BAS 2000 bioimaging analyzer (Fuji Ltd., Tokyo, Japan), and were normalized to the corresponding 36B4 signals.

[2] = system: RXRα−/− F9 cells; assay: as above; type: cell-based, murine; conditions: 1 μM, 48 h
Text: as §1, §2

[3] = system: RXRα−/−/RARγ−/− F9 cells; assay: as above; type: cell-based, murine
Text: as §1, §2

[4] = system: RARγ−/− F9 cells; assay: as above; type: cell-based, murine; conditions: 1 μM, 48 h
Method: as §1
(§3) F9 cells were cultured and induced to differentiate into primitive, parietal and visceral endoderm-like cells as previously described (Boylan, J., et al., Proc. Natl. Acad. Sci. USA 90:9601-9605 (1993); Clifford, J., et al., EMBO J. 15:4142-4155 (1996)).
(§4) RNA preparation, RT-PCR, and Southern blotting were performed as previously described (Bouillet, P., et al., Dev. Biol. 170:420-433 (1995); Roy, B., et al., Mol. Cell. Biol. 15:6481-6487 (1995)). The PCR primers and end-labeled oligonucleotide probes for collagen IVα1, laminin B1, α-fetoprotein (AFP), and 36B4, were described previously (Clifford, J., et al ., EMBO J. 15:4142-4155 (1996)). Transcript levels were quantified using a BAS 2000 bioimaging analyzer (Fuji Ltd., Tokyo, Japan), and were normalized to the corresponding 36B4 signals.

[5] = system: RARα−/− F9 cells; assay: as above; type: cell-based, murine; conditions: 1 μM, 48 h
Method: as §1, §3, §4

[6] = system: RXRα−/−/RARα−/− F9 cells; assay: Apoptosis of F9 cells (Hoechst 33258 staining, FACS); type: cell-based, murine; conditions: 1 μM
[7] = system: RXRα−/− F9 cells; assay: Proliferation of F9 cells in monolayer culture (cell counting, [3H]thymidine incorporation, cell cycle FACS); type: cell-based, murine; conditions: 1 μM, 5 d
[8] = system: WT F9 cells; assay: as above; type: cell-based, murine; conditions: 1 μM, 5 d
Method: Cells were plated in triplicate 3-cm culture wells (5×10^2 cells per well), and cell counting experiments were performed as previously described (Clifford, J., et al., EMBO J. 15:4142-4155 (1996)). [^3H]Thymidine incorporation assays were performed essentially as described (Clifford, J., et al., EMBO J. 15:4142-4155 (1996)), with the following modifications. […] The cell cycle profile of WT and mutant cells was determined as previously described (Clifford, J., et al. EMBO J. 15:4142-4155 (1996)).

[9] = system: RXRα−/−/RARα−/− F9 cells; assay: Morphological differentiation of F9 cell aggregates into visceral endoderm (VE)-like cells (morphology, RT-PCR of markers); type: cell-based, murine; conditions: 50 nM
Text: as §2

[10] = system: RXRα−/− F9 cells; assay: as above; type: cell-based, murine; conditions: 50 nM, 10 d
Text: as §2

[11] = system: RXRα−/−/RARγ−/− F9 cells; assay: as above; type: cell-based, murine
Text: as §2

[12] = target: T1, RARα (Mus musculus, UniProt P11416); assay: D2R promoter CAT reporter assay in COS-1 cells cotransfected with RARα expression vector; type: cell-based; conditions: 0.1 μM
T1 construct: expressed in transfected cells; host or cells: COS-1
T1 sequence (P11416 1-462): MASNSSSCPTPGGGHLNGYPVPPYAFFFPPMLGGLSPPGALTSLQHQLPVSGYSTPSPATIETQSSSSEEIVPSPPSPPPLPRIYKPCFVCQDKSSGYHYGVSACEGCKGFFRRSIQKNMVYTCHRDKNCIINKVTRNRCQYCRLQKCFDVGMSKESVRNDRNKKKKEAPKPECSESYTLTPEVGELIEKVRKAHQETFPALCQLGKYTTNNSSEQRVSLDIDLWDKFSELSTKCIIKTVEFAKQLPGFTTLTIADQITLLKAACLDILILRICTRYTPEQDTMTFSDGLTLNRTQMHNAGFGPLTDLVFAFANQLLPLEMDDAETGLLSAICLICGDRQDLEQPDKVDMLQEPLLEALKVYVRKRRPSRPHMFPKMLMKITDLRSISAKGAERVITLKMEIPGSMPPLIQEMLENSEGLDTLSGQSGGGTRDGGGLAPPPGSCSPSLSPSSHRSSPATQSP
Text: The C1 reporter construct was obtained by subcloning the HindIII fragment spanning the 5 ′ promoter region of the D2R gene (positions −495 to +273), in the reporter plasmid pBLCAT3 (Luckow, B. & Schütz, G., Nucleic Acids Res. 15:5490 (1987)). The C2 reporter plasmid was constructed by subcloning the SmaI-XhoI fragment (positions −76 to +273) in the same position. The C3 and C4 reporters were generated by cloning a 29 bp synthetic oligonucleotide corresponding, respectively, to the natural rat D2R RARE sequence and the mutated one into pBLCAT2 (Luckow, B. & Schütz, G., Nucleic Acids Res. 15:5490 (1987)). The polylinker in pBLCAT2 is located upstream of the herpes simplex virus 1 (HSV1) thymidine kinase (TK) promoter, from position −105 to +51. To measure transfection efficiency the plasmid pCH110 carrying the β-galactosidase gene (Pharmacia) was used. Mouse RARβ, β and γ, as well as mouse RXRα, β and γ expression vectors were derived from the parental pSG5 vector (Green, S., et al., Nucleic Acids Res. 16:369 (1988)).
COS-1 cells were used for transient transfection assays. Cells were grown in Dulbecco's modified Eagle's medium supplemented with 5% fetal calf serum.
Several hours before transfection, the medium was replaced with fresh medium containing 5% charcoal-treated FCS. […]

[13] = system: RXRα−/−/RARα−/− F9 cells; assay: Proliferation of F9 cells in monolayer culture (cell counting, [3H]thymidine incorporation, cell cycle FACS); type: cell-based, murine; conditions: 1 μM, 5 d
[14] = system: RXRα−/− F9 cells; assay: Apoptosis of F9 cells (Hoechst 33258 staining, FACS); type: cell-based, murine; conditions: 1 μM
[15] = 1 μM tRA alone or with 250 μM bt2cAMP, after 4 d

increase of CAT activity ([12]; C1 reporter + RARα expression vector): 16 fold
increase of CAT activity ([12]; C2 reporter + RARα expression vector): 35 fold
Structure (SMILES): CC1=C(/C=C/C(C)=C/C=C/C(C)=C/C(=O)O)C(C)(C)CCC1 [tRA, all-trans retinoic acid]
cells with morphological characteristics of primitive or parietal endodermal differentiation [1, 15]: < 10%
induction of collagen type IVα1 mRNA, lower level compared to WT cells ([1]; 1 μM, 48 h): five
induction of collagen type IVα1 mRNA, lower level compared to WT cells [2]: 3 fold
induction of laminin B1 mRNA, lower level compared to WT cells [2]: 6 fold
morphological differentiation [3, 15]: No morphological differentiation at all
induction of collagen type IVα1 and laminin B1 mRNA ([3]; 1 μM, 48 h): fully abrogated
cells exhibiting a differentiated morphology ([3]; after 6 days of treatment): < 0.1%
morphological differentiation ([3]; after 10 d of treatment): undifferentiated phenotype persisted
induction of collagen type IVα1 mRNA, lower level compared to WT cells [4]: 10 fold
induction of laminin B1 mRNA, lower level compared to WT cells [4]: 6 fold
induction of collagen type IVα1 and laminin B1 mRNA compared to WT cells [5]: not altered
proportion of apoptotic nuclei and subcellular fragments (Hoechst 33258) ([6]; 6 d): ± (<1%)
sub-2N size DNA-containing particles ('apoptotic bodies'), FACS ([6]; after 5 d): not detected
proportion of cells in the G0 and G1 phases (FACS) [7]: 38%
proportion of cells in the G0 and G1 phases (FACS) [8]: 71%
induction of collagen type IVα1, laminin B1 and AFP mRNA ([9]; RXRα−/−/RARα−/− aggregates, 10 d): similarly induced
proportion of outer layer of cells displaying VE morphology ([9]; RXRα−/−/RARα−/−, 10 d): +++ (more than 80%)
outer layer of cell aggregates differentiated into VE-like cells ([9]; RXRα−/−/RARα−/−, after 10 d): > 80%
proportion of outer layer of cells displaying VE morphology [10]: +++ (more than 80%)
induction of collagen IVα1, laminin B1 or AFP mRNA ([11]; RXRα−/−/RARγ−/− aggregates, 50 nM, 10 d): no induction
surface of the aggregates ([11]; RXRα−/−/RARγ−/−, 50 nM, after 10 days): as smooth after 10 days of treatment as in untreated controls
aggregates displaying only a spotty VE conversion ([11]; RXRα−/−/RARγ−/−, after 12 or 18 d of treatment): < 10%
proportion of cells in the G0 and G1 phases (FACS) [13]: 40%
proportion of apoptotic nuclei and subcellular fragments (Hoechst 33258) ([14]; 6 d): ± (<1%)
sub-2N size DNA-containing particles ('apoptotic bodies'), FACS ([14]; after 5 d): not detected
